Measurements taken from patent US20110053900A1, “PROGESTERONE ANTAGONISTS SUCH AS CDB-4124 IN THE TREATMENT OF BREAST CANCER” (Repros Therapeutics inc, priority 2008, published 2011).

How the values were obtained:
[1] = test system: rabbit progesterone receptor (rbPR) and glucocorticoid receptor (rbGR); assay: Receptor-binding assays, ratio of relative binding affinities rbPR/rbGR; conditions: RBA = EC50 of standard/EC50 of test compound x 100
Description: Certain antiprogestins were tested in receptor-binding assays for their ability to bind rabbit progesterone receptor (rbPR) and glucocorticoid receptor (rbGR). Briefly, cytosol containing PR or GR were prepared in TEGMD buffer (10 mM Tris, pH 7.2, 1.5 mM EDTA, 0.2 mM sodium molybdate, 10% glycerol, 1 mM DTT) from uterus or thymus, respectively, of estradiol-primed immature rabbits. For PR binding, the cytosol was incubated with 6 nM 1,2-[^3H]progesterone (50.0 Ci/mmole) and competitors were added at concentrations from 2 to 100 nM. For binding to GR, the cytosol was incubated with 6 nM 6,7-[^3H]-dexamethasone (40 Ci/mmol) and test compounds were added at concentrations from 20 to 100 nM. After overnight incubation at 4° C., bound and unbound [^3H] steroids were separated by addition of dextran-coated charcoal and centrifugation at 2100×g for 15 min at 4
C. Supernatants containing the [3H]-steroid receptor complexes were decanted into vials containing 4 ml Optifluor (Packard Instrument Co.), vortexed, equilibrated in a liquid scintillation counter for 30 minutes and then counted for 2 minutes. The ECso (Effective Concentration) for each standard curve and each of the compound curves was determined by entering the counting data into a four parameter sigmoidal computer program (RiaSmart® Immunoassay Data Reduction Program, Packard Instrument Co., Meriden, Conn.). Relative binding affinity (RBA) for each compound was calculated using the following equation: EC50 of standard/EC50 of test compound×100. The standards for the PR and GR assays were unlabeled progesterone and dexamethasone, respectively. The results of these experiments are summarized in Table 1, as a ratio of the relative binding affinities of each compound for the rbPR and rbGR receptors (rbPR/rbGR).

rabbit uterus = assay: Anti-McGinty and anti-Clauberg assays; format: in vivo; conditions: average of anti-McGinty and anti-Clauberg results relative to CDB-2914 = 1.00
From the text: Also given in the Table are the relative biological activities of the same compounds in the rabbit uterus by the anti-McGinty and anti-Clauberg assays. Compound CDB-2914 (listed at the end of the Table) was used as the control or reference compound (rabbit Biological Activity=1.00) for these experiments because results of experiments using CDB-2914 have been published before (Hild-Petito et al., 1996; Passaro et al., 1997; Reel et al., 1998; Lamer et al., 2000). For the anti-McGinty test, immature female rabbits received a subcutaneous injection of 5 μg estradiol in 10% ethanol/sesame oil daily for 6 consecutive days. On day 7, animals underwent sterile abdominal surgery to ligate a 3-4 cm segment of both uterine horns. The test compound in appropriate solvent was injected intraluminally into the ligated segment of one uterine horn and vehicle alone into the other. A stimulating dose of progesterone (267 μg/day) was administered subcutaneously to each rabbit daily for the next three days to induce endometrial proliferation. All animals were sacrificed at day 10 for removal of the uterus where a segment central to the ligatures was removed and fixed in 10% neutral buffered formalin and submitted for histological processing. Five micron sections stained with hematoxylin and cosin were evaluated microscopically for the degree of endometrial glandular proliferation. The percent inhibition of endometrial proliferation for each rabbit was calculated and the mean of the group of five animals recorded. For the Anti-Clauberg test, immature female rabbits received a subcutaneous injection of 5 μg estradiol in 10% ethanol/sesame oil daily for 6 consecutive days. On day 7, animals received progesterone by subcutaneous injection (160 μg/day) and the experimental compound in appropriate vehicle orally or subcutaneously for five consecutive days. One group of rabbits received progesterone only. Twenty-four hours after the last dose, all animals were sacrificed for removal of the uterus which was cleaned of all fat and connective tissue, weighed to the nearest 0.2 mg and placed in 10% neutral buffered formalin for subsequent histological processing. Five micron sections stained with hematoxylin and eosin were evaluated microscopically for the degree of endometrial glandular proliferation. The percent inhibition of endometrial proliferation at each dose level of the test compound was derived by comparison with progesterone-stimulated animals alone. The data presented in Table 1 (rabbit Biol. Act.) reflects the average of the results obtained for each compound by the anti-McGinty and anti-Clauberg assays relative to CDB-2914.

Row | Compound | rbPR/rbGR (ratio of the relative binding affinities for rbPR and rbGR) [1] | rabbit Biol. Act. (rabbit uterus)
1 | CCC(=O)OCC(=O)[C@@]1(OC(C)=O)CCC2C3CCC4=CC(=O)CCC4=C3C(c3ccc(N(C)C)cc3)C[C@@]21C (stereo partly drawn) [CDB-4247, 21-propionyloxy-17α-acetoxy-11β-(4 N,N-dimethylaminophenyl)-19-norpregna-4,9-diene-3,20-dione] | 2.06 | –
2 | CC(=O)O[C@]1(C(=O)CBr)CCC2C3CCC4=CC(=O)CCC4=C3C(c3ccc(N(C)C)cc3)C[C@@]21C (stereo partly drawn) [CDB-4031, 21-bromine-17α-acetoxy-11β-(4 N,N-dimethylaminophenyl)-19-norpregna-4,9-diene-3,20-dione] | 0.69 | –
3 | COCC(=O)[C@@]1(OC(C)=O)CCC2C3CCC4=C(C(=O)c5ccccc5)C(=O)CCC4=C3C(c3ccc(N(C)C)cc3)C[C@@]21C (stereo partly drawn) [CDB-4239, 4-benzoin-21-methoxy-17α-acetoxy-11β-(4 N,N-dimethylaminophenyl)-19-norpregna-4,9-diene-3,20-dione] | 14.80 | –
4 | CC(=O)O[C@]1(C(=O)CF)CCC2C3CCC4=CC(=O)CCC4=C3C(c3ccc(N(C)C)cc3)C[C@@]21C (stereo partly drawn) [CDB-4058, 21-flourine-17α-acetoxy-11β-(4 N,N-dimethylaminophenyl)-19-norpregna-4,9-diene-3,20-dione] | 1.08 | –
5 | 21-methoxyacetyl-17α-acetoxy-11β-(4 N,N-dimethylaminophenyl)-19-norpregna-4,9-diene-3,20-dione [CDB-4362] | 4.74 | 1.25
6 | CC(=O)O[C@]1(C(=O)COC(=O)CN)CCC2C3CCC4=CC(=O)CCC4=C3C(c3ccc(N(C)C)cc3)C[C@@]21C (stereo partly drawn) [CDB-4306, 21-glycinate-17α-acetoxy-11β-(4 N,N-dimethylaminophenyl)-19-norpregna-4,9-diene-3,20-dione] | 5.90 | 0.95
7 | C=COCC(=O)[C@@]1(OC(C)=O)CCC2C3CCC4=CC(=O)CCC4=C3C(c3ccc(N(C)C)cc3)C[C@@]21C (stereo partly drawn) [CDB-4361, 21-vinyl ether-17α-acetoxy-11β-(4 N,N-dimethylaminophenyl)-19-norpregna-4,9-diene-3,20-dione] | 7.20 | –
8 | CCC(=O)[C@@]1(OC(C)=O)CCC2C3CCC4=CC(=O)CCC4=C3C(c3ccc(N(C)C)cc3)C[C@@]21C (stereo partly drawn) [CDB-4030, 21-methyl-17α-acetoxy-11β-(4 N,N-dimethylaminophenyl)-19-norpregna-4,9-diene-3,20-dione] | 0.96 | –
9 | CSCC(=O)[C@@]1(OC(C)=O)CCC2C3CCC4=CC(=O)CCC4=C3C(c3ccc(N(C)C)cc3)C[C@@]21C (stereo partly drawn) [CDB-4223, 21-methylthio-17α-acetoxy-11β-(4 N,N-dimethylaminophenyl)-19-norpregna-4,9-diene-3,20-dione] | 1.17 | –
10 | CC(=O)O[C@]1(C(=O)CSC#N)CCC2C3CCC4=CC(=O)CCC4=C3C(c3ccc(N(C)C)cc3)C[C@@]21C (stereo partly drawn) [CDB-4352, 21-cyanothio-17α-acetoxy-11β-(4 N,N-dimethylaminophenyl)-19 norpregna-4,9-diene-3,20-dione] | 4.21 | –
11 | CC(=O)O[C@]1(C(=O)C[S+](C)[O-])CCC2C3CCC4=CC(=O)CCC4=C3C(c3ccc(N(C)C)cc3)C[C@@]21C (stereo partly drawn) [CDB-4101, 21-methoxythio-17α-acetoxy-11β-(4 N,N-dimethylaminophenyl)-19-norpregna-4,9-diene-3,20-dione] | 0.61 | –
12 | CCOCC(=O)[C@@]1(OC(C)=O)CCC2C3CCC4=CC(=O)CCC4=C3C(c3ccc(N(C)C)cc3)C[C@@]21C (stereo partly drawn) [CDB-4167, 21-ethyloxy-17α-acetoxy-11β-(4 N,N-dimethylaminophenyl)-19-norpregna-4,9-diene-3,20-dione] | 1.69 | –
13 | CCOCC(=O)[C@@]1(OC(C)=O)CCC2C3CCC4=CC(=NO)CCC4=C3C(c3ccc(N(C)C)cc3)C[C@@]21C (stereo partly shown) [CDB-4226] | 1.51 | 0.54
14 | CC(=O)OCC(=O)[C@@]1(OC(C)=O)CCC2C3CCC4=CC(=NO)CCC4=C3C(c3ccc(N(C)C)cc3)C[C@@]21C (stereo partly drawn) [CDB-4206, 3-hydroxyamino-21-acetoxy-17α-acetoxy-11β-(4 N,N-dimethylaminophenyl)-19-norpregna-4,9-diene-3,20-dione] | 1.44 | 0.68
15 | 21-(Cyp*-hydroxy)-17α-acetoxy-11β-(4 N,N-dimethylaminophenyl)-19-norpregna-4,9-diene-3,20-dione [CDB-4125] | 1.19 | 1.55
16 | COCC(=O)C1(OC(C)=O)CCC2C3CCC4=CC(=NO)CCC4=C3C(c3ccc(N(C)C)cc3)C[C@@]21C (stereo partly drawn) [CDB-4205, 3-hydroxyamino-21-methoxy-17α-acetoxy-11β-(4 N,N-dimethylaminophenyl)-19-norpregna-4,9-diene-3,20-dione] | 1.99 | 1.00
17 | CC(=O)O[C@]1(C2COC(C)(C)O2)CCC2C3CCC4=CC(=O)CCC4=C3C(c3ccc(N(C)C)cc3)C[C@@]21C (stereo partly drawn) [CDB-4110, 21-acetonide-17α-acetoxy-11β-(4 N,N-dimethylaminophenyl)-19-norpregna-4,9-diene-3,20-dione] | 0.70 | –
18 | 4-benzoin-21-acetylthio-17α-acetoxy-11β-(4 N,N-dimethylaminophenyl)-19-norpregna-4,9-diene-3,20-dione [CDB-4119] | 2.60 | 0.10
19 | CC(=O)O[C@]1(C(=O)CO)CCC2C3CCC4=CC(=O)CCC4=C3C(c3ccc(N(C)C)cc3)C[C@@]21C (stereo partly drawn) [CDB-4152, 21-hydroxy-17α-acetoxy-11β-(4 N,N-dimethylaminophenyl)-19-norpregna-4,9-diene-3,20-dione] | 0.82 | –
20 | 21-BMD-17α-acetoxy-11β-(4 N,N-dimethylaminophenyl)-19-norpregna-4,9-diene-3,20-dione [CDB-4111] | 1.30 | 0.36
